Measured values published in the NIST ThermoML archive (doi:10.1016/j.jct.2013.12.029).
Numbers after ± are expanded uncertainties.

settings: 293 K; 101.33 kPa; Liquid; Vibrating tube method

With `CCCCCC[N+]1(C)CCCCC1.O=S(=O)([N-]S(=O)(=O)C(F)(F)F)C(F)(F)F` as the compound, how does the mass density read?
Its mass density is 1329.5 ± 1.1 kg/m3.

same assay, conditions: 298.15 K; 101.33 kPa; Liquid; Vibrating tube method

With `CCCCCC[N+]1(C)CCCCC1.O=S(=O)([N-]S(=O)(=O)C(F)(F)F)C(F)(F)F` as the compound, how does the mass density read?
Its mass density is 1325.4 ± 1.1 kg/m3.

For `CCCC[N+]1(C)CCCCC1.O=S(=O)([N-]S(=O)(=O)C(F)(F)F)C(F)(F)F`, which mass density is on record?
Its mass density is 1379.2 ± 1.1 kg/m3.

Which mass density does the source give for `CCC[N+]1(C)CCCCC1.O=S(=O)([N-]S(=O)(=O)C(F)(F)F)C(F)(F)F` here?
The mass density was 1409.8 ± 1.1 kg/m3.

For `CC(C)=O` [acetone], which mass density is on record?
Its mass density is 785.32 ± 1 kg/m3.

Which mass density does the source give for `c1ccc2sccc2c1` [benzo[b]thiophene] here?
The mass density was 1427 ± 1 kg/m3.

For `CCCCCCC` [heptane], which mass density is on record?
Its mass density is 679.54 ± 1 kg/m3.

With `CCCO` [propan-1-ol] as the compound, how does the mass density read?
Its mass density is 799.52 ± 1 kg/m3.

For `c1ccsc1` [thiophene], which mass density is on record?
Its mass density is 1058.92 ± 1 kg/m3.
